Values joined by “and” are separate entries in the source; they are usually repeats but may differ in a detail not shown here. Identical values can stand only once. Where only a bound is given, the exact number is not on record here.

Sequence of Nonstructural protein 3 (A0A024AXB9 whole entry): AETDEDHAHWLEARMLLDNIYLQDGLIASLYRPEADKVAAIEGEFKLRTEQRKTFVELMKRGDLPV

This experiment has as its target Nonstructural protein 3 (Zika virus, UniProt A0A024AXB9). Nature of the experiment: Functional biochemical assay to identify treatments for viral infectious disease that targets Zika NS2B-NS3 protease. Utilizing a direct enzyme activity measurement method, reading the fluorescence intensity is used to characterize the relative potency of inhibitors as IC50. The arrangement: species or system PRVABC59.
Usually IC50 stands for the concentration that gives 50% inhibition. Compound `O=C(Nc1cc(Cl)cc(C(=O)Nc2ccc3c(c2)C[C@H](O)C3)c1)OCc1ccccc1` showed an IC50 of more than 99.5 µM.
With `Cc1cc(C(=O)Nc2cccc(CN)c2)c2cnn(-c3ccc(F)cc3)c2n1` the figure was 61.6 µM; with `CC(C)c1cc(NC(=O)OCc2ccccc2)cc(C(=O)Nc2cccc(CN)c2)c1`, 20 µM; with `CNC(=O)C[C@H](Nc1ccccn1)c1cc(Cl)cc(Br)c1`, more than 99.5 µM.
With `CN(C)Cc1cc(Cl)cc(C(=O)Nc2cccc(CN)c2)c1` the figure was 7.99 µM.
With `CCn1c(=O)c(N2CC[C@H](CO)C2)nc2ccc(C(=O)N(C)C)cc21` the figure was more than 99.5 µM.
For `NCc1ccc(I)c(NC(=O)c2cc(Cl)cc(NC(=O)OCc3ccccc3)c2)c1`, the IC50 is 50.6 µM.
The result for `CCn1c(=O)c(N2CC[C@H](CO)C2)nc2cc(C(N)=O)ccc21` reads more than 99.5 µM; that for `O=C(Nc1cc(Cl)cc(C(=O)Nc2ccc(S(=O)(=O)N3CCNCC3)cc2)c1)OCc1ccccc1`, more than 99.5 µM.
The result for `Cc1c(C(=O)Nc2cccc(CN)c2)cc(C2CC2)n1C` reads more than 99.5 µM; that for `O=C(Nc1cc(Cl)cc(C(=O)Nc2ccc3c(c2)OCO3)c1)OCc1ccccc1`, more than 99.5 µM; that for `NCc1cccc(NC(=O)c2cc(Cl)cc([C@H]3CCCCN3)c2)c1`, 7.17 µM.
The result for `O=C(Nc1cc(Cl)cc(C(=O)Nc2cccc([C@H]3C[C@H]3C(=O)O)c2)c1)OCc1ccccc1` reads 62.1 µM and 77.7 µM and 77.6 µM; that for `NCc1cccc(NC(=O)c2cc(NC(=O)OCc3ccccc3)cc(C3CC3)c2)c1`, 22.1 µM.
For `C[C@H]1CN(C)C[C@@H](C(=O)Nc2cccc(CN)c2)O1`, the IC50 is more than 99.5 µM.
With `Cc1cc(NC(=O)OCc2ccccc2)cc(C(=O)Nc2cccc(CN)c2)c1` the figure was 10.2 µM; with `CS(=O)(=O)c1cc(CN)cc(NC(=O)c2cc(Cl)cc(NC(=O)OCc3ccccc3)c2)c1`, 23.3 µM.
The result for `O=C(O)COc1cccc(NC(=O)c2cc(Cl)cc(NC(=O)OCc3ccccc3)c2)c1` reads more than 99.5 µM; that for `CNC(=O)[C@H](Nc1cccc(N)n1)c1cc(Cl)cc(CN)c1`, more than 99.5 µM; that for `Cc1c(C(=O)Nc2cccc(CN)c2)cc(C(C)C)n1C`, more than 99.5 µM.
`O=C1NC[C@H](c2ccc(OCc3ccccc3)c(Br)c2)N1C(=O)OCc1ccccc1` yielded an IC50 of more than 99.5 µM.
With `CSC1(C(=O)N[C@H](CC(=O)Nc2cccc(CN)c2)c2ccc(OCc3ccccc3)c(Br)c2)CCC1` the figure was 11.8 µM; with `O=Cc1cc(Cl)cc(NC(=O)OCc2ccccc2)c1`, more than 99.5 µM; with `CCn1c(=O)c(N2CC[C@H](CO)C2)nc2cc(C(=O)O)ccc21`, more than 99.5 µM.
As for `NCCNS(=O)(=O)c1ccc(NC(=O)c2cc(Cl)cc(NC(=O)OCc3ccccc3)c2)cc1`, the IC50 came out at 10.9 µM.
With `NCc1cc(Br)cc(NC(=O)c2cc(Cl)cc(NC(=O)OCc3ccccc3)c2)c1` the figure was 16.7 µM; with `CC1(C)CCC(F)(F)C[C@H]1C(=O)Nc1cccc(CN)c1`, more than 99.5 µM.
In turn, `O=C(Nc1cc(Cl)cc(C(=O)Nc2ccc(C3CCNCC3)cc2)c1)OCc1ccccc1` had an IC50 of 6.02 µM.
The compound `CCc1cc(C(=O)Nc2cccc(CN)c2)sc1C` displayed an IC50 of more than 99.5 µM.
The result for `O=C(Nc1cc(Cl)cc(C(=O)Nc2cccc(CN3CCCC3=O)c2)c1)OCc1ccccc1` reads more than 99.5 µM; that for `Cc1onc(C(=O)Nc2cccc(CN)c2)c1COc1cccc(F)c1`, more than 99.5 µM.
The result for `NCc1ccc(C#CCO)c(NC(=O)c2cc(Cl)cc(NC(=O)OCc3ccccc3)c2)c1` reads 30.6 µM; that for `O=C(Nc1cc(Cl)cc(C(=O)Nc2ccc3c(c2)OCCNC3)c1)OCc1ccccc1`, 15.2 µM; that for `NCc1cccc(NC(=O)c2c(C(F)(F)F)nc3n2CCCC3)c1`, more than 99.5 µM.
With `Cc1cnnc(C(=O)Nc2cccc(CN)c2)c1` the figure was more than 99.5 µM; with `N#CC[C@H](N)c1cccc(NC(=O)c2cc(Cl)cc(NC(=O)OCc3ccccc3)c2)c1`, more than 99.5 µM; with `CCn1c(=O)c(N2CC[C@H](CO)C2)nc2ccc(C(=O)NCc3ccccc3)cc21`, more than 99.5 µM.
Take `O=C(Nc1cc(Cl)cc(C(=O)Nc2ccc(OC3CNC3)cc2)c1)OCc1ccccc1`: half-maximal inhibition (IC50) required 5.64 µM.
With `Cc1nc(N2CCOCC2)sc1CC(=O)Nc1cccc(CN)c1` the figure was more than 99.5 µM; with `NCCCCc1ccc(NC(=O)c2cc(Cl)cc(NC(=O)OCc3ccccc3)c2)cc1`, 5.42 µM.
With `NCc1cccc(NC(=O)c2cc(NC(=O)OCc3ccccc3)cc(C(F)(F)F)c2)c1` the figure was 14.6 µM; with `CS(=O)(=O)c1ccc(CN)cc1NC(=O)c1cc(Cl)cc(NC(=O)OCc2ccccc2)c1`, 19.8 µM.
With `O=C(O)CCc1ccc(NC(=O)c2cc(Cl)cc(NC(=O)OCc3ccccc3)c2)cc1` the figure was more than 99.5 µM; with `N#CCc1cccc(NC(=O)c2cc(Cl)cc(NC(=O)OCc3ccccc3)c2)c1`, more than 99.5 µM; with `CCn1c(=O)c(N2CC[C@H](CO)C2)nc2cc(C(=O)N(C)C)ccc21`, more than 99.5 µM.
Consider `NCc1ccc(COc2ccc(-c3ccc(N)nc3)c3c2OB(O)CC3)cc1`, for which the IC50 was more than 99.5 µM.
The result for `CC(C)(C)OC(=O)NCc1ccc(I)c(NC(=O)c2cc(Cl)cc(NC(=O)OCc3ccccc3)c2)c1` reads more than 99.5 µM; that for `CNC(=O)[C@H](Nc1ccccn1)c1cc(Cl)cc(CN)c1`, more than 99.5 µM.
The result for `O=C(Nc1cc(Cl)cc(C(=O)Nc2ccc(CCN3CCOCC3)cc2)c1)OCc1ccccc1` reads more than 99.5 µM; that for `NCc1nc(-c2ccc(NC(=O)c3cc(Cl)cc(NC(=O)OCc4ccccc4)c3)cc2)n[nH]1`, more than 99.5 µM.
The result for `NCc1cccc(NC(=O)[C@H]2CC(=O)Nc3ccc(Br)cc32)c1` reads more than 99.5 µM.
`Cc1cc(C(=O)Nc2cccc(CN)c2)c2sc(N)nc2n1` displayed an IC50 of more than 99.5 µM.
In turn, `Cc1cc(C(=O)Nc2cccc(CN)c2)cc(NCc2cnn(C)c2)n1` registered an IC50 of more than 99.5 µM.
With `O=C(Nc1cc(Cl)cc(C(=O)Nc2ccc(N3CCNCC3)c(F)c2)c1)OCc1ccccc1` the figure was 15.7 µM; with `O=C(Nc1ccc2c(c1)CNC2)c1cc(O)nc(C2CC2)c1`, 7.58 µM.
The result for `N[C@H]1CC[C@H](c2ccc(NC(=O)c3cc(Cl)cc(NC(=O)OCc4ccccc4)c3)cc2)C1` reads 5.01 µM.
The result for `O=C(Nc1cc(Cl)cc(C(=O)Nc2cccc(C(=O)O)c2)c1)OCc1ccccc1` reads 84 µM; that for `O=C(Nc1cc(Cl)cc(C(=O)Nc2ccc3c(c2)COC3)c1)OCc1ccccc1`, more than 99.5 µM; that for `CCn1c(=O)c(N2CC[C@H](CO)C2)nc2cc(C(=O)NS(C)(=O)=O)ccc21`, more than 99.5 µM.
On to `CCNC(=O)c1ccc2nc(N3CC[C@H](CO)C3)c(=O)n(CC)c2c1`, for which the IC50 was more than 99.5 µM.
With `Cc1cc(C(=O)N[C@H](CC(=O)Nc2cccc(CN)c2)c2ccc(OCc3ccccc3)c(Br)c2)sn1` the figure was 6.83 µM.
`CS(=O)(=O)Nc1cccc(NC(=O)c2cc(Cl)cc(NC(=O)OCc3ccccc3)c2)c1` displayed an IC50 of more than 99.5 µM.
With `O=C(Nc1cc(Cl)cc(C(=O)Nc2ccc(N3CCCNCC3)cc2)c1)OCc1ccccc1` the figure was 8.78 µM; with `CCn1c(=O)c(N2CC[C@H](CO)C2)nc2cc(C(=O)NCc3ccccc3)ccc21`, more than 99.5 µM; with `CS(=O)(=O)c1ccc(NC(=O)c2cc(Cl)cc(NC(=O)OCc3ccccc3)c2)cc1`, more than 99.5 µM.
The result for `NCc1cc(NC(=O)c2cc(Cl)cc(NC(=O)OCc3ccccc3)c2)cc(C2CC2)c1` reads 6.67 µM; that for `CCOc1cccc(-c2ccc(NS(=O)(=O)c3cc(F)c(Cl)cc3C(=O)O)cc2)c1`, 21.8 µM.
With `O=C(Nc1cc(Cl)cc(C(=O)Nc2ccc(CC3CCNCC3)cc2)c1)OCc1ccccc1` the figure was 5.23 µM.
For `CS(=O)(=O)c1cccc(NC(=O)c2cc(Cl)cc(NC(=O)OCc3ccccc3)c2)c1`, the 50% inhibitory concentration (IC50) is more than 99.5 µM.
With `C[C@H]1CNC[C@@H]1c1ccc(NC(=O)c2cc(Cl)cc(NC(=O)OCc3ccccc3)c2)cc1` the figure was 7.26 µM; with `CCn1c(=O)c(N2CC[C@@H](CO)C2)nc2ccc(C(=O)O)cc21`, more than 99.5 µM; with `CNC(=O)C[C@H](Nc1ccccn1)c1cc(Cl)cc(CN)c1`, more than 99.5 µM.
With `CCNC(=O)c1ccc2c(c1)nc(N1CC[C@H](CO)C1)c(=O)n2CC` the figure was more than 99.5 µM; with `O=C(Nc1cc(Cl)cc(C(=O)Nc2ccc([C@]34CNC[C@H]3C4)cc2)c1)OCc1ccccc1`, 21.2 µM; with `C[C@H]1Oc2ccc(NC(=O)c3cc(Cl)cc(NC(=O)OCc4ccccc4)c3)cc2NC1=O`, more than 99.5 µM.
The result for `NCc1cccc(NC(=O)[C@H]2CCOC3(CCC3)C2)c1` reads more than 99.5 µM; that for `C[C@H]1CN(Cc2ccccc2)C[C@@H](C(=O)Nc2cccc(CN)c2)O1`, more than 99.5 µM.
Compound `NCc1cccc(NC(=O)c2cc(Cl)cc(Cl)c2OCc2ccccc2)c1` had an IC50 of more than 99.5 µM.
As to `O=C(Nc1cc(Cl)cc(C(=O)Nc2ccc(C3CNC3)cc2)c1)OCc1ccccc1`, the IC50 was determined as 5.99 µM. In other words, the single-digit micromolar range.
On to `CCn1c(=O)c(N2CC[C@H](CO)C2)nc2ccc(C(=O)OC)cc21`, for which the IC50 is more than 99.5 µM.
Compound `COC1(C(=O)N[C@H](CC(=O)Nc2cccc(CN)c2)c2ccc(OCc3ccccc3)c(Br)c2)CC1` showed an IC50 of 48.7 µM.
The result for `COC(=O)[C@]12CC[C@](C(=O)Nc3cccc(CN)c3)(COC1)C2` reads more than 99.5 µM; that for `O=C(Nc1cc(Cl)cc(C(=O)Nc2ccc3c(c2)C(=O)OC3)c1)OCc1ccccc1`, more than 99.5 µM.
With `N#Cc1cc(NC(=O)OCc2ccccc2)cc(C(=O)Nc2cccc(CN)c2)c1` the figure was 15.4 µM; with `Cc1cc(C(=O)Nc2cccc(CN)c2)c2c(n1)CCCC2`, more than 99.5 µM.
With `Cc1[nH]c2ccc(Br)cc2c1CC(=O)Nc1cccc(CN)c1` the figure was more than 99.5 µM; with `O=C(Nc1cc(Cl)cc(C(=O)Nc2ccc3c(c2)CNCC3)c1)OCc1ccccc1`, 3.4 µM.
The compound `NCc1cccc(NC(=O)c2cc(C(F)(F)F)cnc2N2CCOCC2)c1` had an IC50 of more than 99.5 µM.
`NCc1cccc(NC(=O)[C@@H]2CCCCN2)c1` displayed an IC50 of more than 99.5 µM.
With `C[C@H]1C[C@@H](C(=O)Nc2cccc(CN)c2)CCO1` the figure was more than 99.5 µM.

The record behind these values is ChEMBL document CHEMBL5604062, “ASAP - ZIKV NS2B-NS3 protease fluorescence dose response” (2024).
